Measurements: patent US20250250265A1, “BENZOTHIAZOLE-PHENYLSULFONYL-PIPERIDINE ANALOGS AS ACTIVATORS OF NACYLPHOSPHATIDYLETHANOLAMINE HYDROLYZING PHOSPHOLIPASE D” (priority 2022, published 2025)
Entries after “also recorded” stand apart in the source; their conditions may differ.

Experiments:
[1] = target: T1, NAPE-PLD activity in primary BMDMϕ (Mus musculus, UniProt Q8BH82); assay: NAPE-PLD activity in primary bone marrow derived macrophages; type: cell-based; conditions: VU534 at 10 μM (FIG. 5)
T1 construct: endogenous in cells; host or cells: primary bone-marrow-derived macrophages (C57BL6/j mice)
T1 sequence (Q8BH82 1-396): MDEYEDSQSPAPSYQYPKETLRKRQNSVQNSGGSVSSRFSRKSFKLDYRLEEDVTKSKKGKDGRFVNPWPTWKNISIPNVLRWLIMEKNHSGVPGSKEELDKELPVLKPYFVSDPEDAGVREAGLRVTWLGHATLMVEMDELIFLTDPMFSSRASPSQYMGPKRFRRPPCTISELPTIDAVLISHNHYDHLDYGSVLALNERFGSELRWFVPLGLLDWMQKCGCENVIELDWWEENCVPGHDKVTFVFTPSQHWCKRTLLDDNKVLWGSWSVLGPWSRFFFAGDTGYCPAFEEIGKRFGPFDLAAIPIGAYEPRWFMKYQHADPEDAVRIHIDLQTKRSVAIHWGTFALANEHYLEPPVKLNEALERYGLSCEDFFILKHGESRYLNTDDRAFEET

[2] = target: T2, recombinant mouse NAPE-PLD (Mus musculus, UniProt Q8BH82); assay: Michaelis-Menten analysis with flame-NAPE as substrate; type: biochemical
T2 construct: hexahistidine (His6) (C); made in house; host or cells: E. coli
T2 sequence (Q8BH82 1-396): T1 sequence (Q8BH82 1-396)
Experimental: To further understand this effect, a 50-nanosecond molecular dynamic (MD) simulation was performed using AMBER17. The PDQ9:VU534 complex was prepped for simulation using CHARMM-GUI and ff14SB, TIP3P, GAFF2 force fields were employed for proteins, […] molecules, respectively. This simulation predicted that VU534 binding to the interface pocket allosterically alters the catalytic site conformation including reorienting the zinc-hydroxide-zinc complex parallel to the substrate (FIG. 11), consistent with the measured increased kcat.
A similar in vitro fluorescence Nape-pld activity assay was used for LEI-401 and VU233 competition assays except that this assay was performed using black-walled clear-bottom 96-well plates with 3.5 μM PED-A1 and no N-palmitoyl-dioleoyl-PE used as substrate and read in a BioTek Synergy H1 plate reader with the slope of the fluorescence signal from 0-4 min (linear phase) used as the assay readout. LEI-401, VU233, and VU534 were incubated for 1 h prior to addition of PED-A1. The Michaelis-Menten study used this same assay except with graded concentration of flame-NAPE.
To confirm the results of the fluorescence-based assays, an orthogonal biochemical Nape-pld assay based on LC/MS was employed. Recombinant mouse NAPE-PLD was pre-treated with VU534, VU533, VU233 or vehicle for 30 min, then N-oleoyl-phosphatidylethanolamine (NOPE) was added for 90 min, and the resulting levels of OEA and NOPE was measured by LC/MS. […] To further characterize the effect of VU534 on NAPE-PLD activity, a Michaelis-Menten analysis was performed using recombinant mouse NAPE-PLD and graded concentrations of flame-NAPE, a selective NAPE-PLD fluorogenic substrate resistant to competing esterase activity.

With `Cc1cc(C)c2sc(NC(=O)C3CCN(S(=O)(=O)c4ccc(F)cc4)CC3)nc2c1` [VU534, N-(5,7-Dimethylbenzo[d]thiazol-2-yl)-1-((4-fluorophenyl)sulfonyl)piperidine-4-carboxamide] the “effect on NAPE-PLD activity in primary BMDM” value [1] was “increases NAPE-PLD activity”, the “effect on catalytic rate (kcat) of NAPE-PLD” value ([2]; Example 9, FIG. 10) was “enhanced kcat (turnover number) without reducing the Michaelis-Menten constant, Km; also recorded: increases the catalytic rate” and the “K1/2 of NAPE-PLD” value ([2]; with VU534 (vehicle 12.4 μM), flame-NAPE) was 5.9 µM. The “maximal velocity of NAPE-PLD” value ([2]; with VU534 (vehicle 227 RFU/min), flame-NAPE) was 421 RFU/min.
